Legend:
[1] = molecular target: Serine/threonine-protein kinase WNK1 (Homo sapiens) (UniProt Q9H4A3); test: Selectivity interaction (Kinase panel (DSF assay)) EUB0001559a WNK1
[2] = molecular target: Mitogen-activated protein kinase 8 (Homo sapiens, UniProt P45983); test: Selectivity interaction (LanthaScreen Eu Kinase Binding Assay) EUB0001632a MAPK8; conditions: at 10 µM
[3] = molecular target: T1, Dual specificity protein kinase TTK (Homo sapiens) (UniProt P33981); test: Selectivity interaction (KinomeScan (DiscoverX)) EUB0000666a TTK; conditions: at 10 µM
T1 sequence (whole entry): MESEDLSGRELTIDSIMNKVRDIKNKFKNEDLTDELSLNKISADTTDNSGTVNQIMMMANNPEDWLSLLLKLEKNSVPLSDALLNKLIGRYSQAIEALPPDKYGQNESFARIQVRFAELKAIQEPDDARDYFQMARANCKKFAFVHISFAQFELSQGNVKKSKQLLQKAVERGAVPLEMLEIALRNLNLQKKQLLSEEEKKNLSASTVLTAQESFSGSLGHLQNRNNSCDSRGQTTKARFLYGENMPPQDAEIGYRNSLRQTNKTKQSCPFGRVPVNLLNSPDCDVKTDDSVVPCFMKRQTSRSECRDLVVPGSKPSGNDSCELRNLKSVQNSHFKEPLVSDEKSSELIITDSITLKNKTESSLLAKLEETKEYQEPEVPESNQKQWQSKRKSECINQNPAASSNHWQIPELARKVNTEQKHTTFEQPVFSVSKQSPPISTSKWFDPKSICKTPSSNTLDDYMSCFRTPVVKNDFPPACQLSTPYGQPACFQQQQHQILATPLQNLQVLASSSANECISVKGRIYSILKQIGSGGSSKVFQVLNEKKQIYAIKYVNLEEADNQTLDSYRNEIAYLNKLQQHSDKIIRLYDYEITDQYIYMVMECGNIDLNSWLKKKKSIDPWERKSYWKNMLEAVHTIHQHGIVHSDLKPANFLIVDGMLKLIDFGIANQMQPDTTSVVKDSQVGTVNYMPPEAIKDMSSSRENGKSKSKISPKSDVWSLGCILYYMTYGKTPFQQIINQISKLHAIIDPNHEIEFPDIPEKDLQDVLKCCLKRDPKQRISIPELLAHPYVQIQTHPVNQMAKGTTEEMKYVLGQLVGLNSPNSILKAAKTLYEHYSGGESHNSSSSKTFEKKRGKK

[4] = molecular target: Death-associated protein kinase 1 (Homo sapiens, UniProt P53355); test: Selectivity interaction (KinomeScan (DiscoverX)) EUB0000666a DAPK1; conditions: at 10 µM
Chain of Death-associated protein kinase 1 (P53355 whole entry, looked up): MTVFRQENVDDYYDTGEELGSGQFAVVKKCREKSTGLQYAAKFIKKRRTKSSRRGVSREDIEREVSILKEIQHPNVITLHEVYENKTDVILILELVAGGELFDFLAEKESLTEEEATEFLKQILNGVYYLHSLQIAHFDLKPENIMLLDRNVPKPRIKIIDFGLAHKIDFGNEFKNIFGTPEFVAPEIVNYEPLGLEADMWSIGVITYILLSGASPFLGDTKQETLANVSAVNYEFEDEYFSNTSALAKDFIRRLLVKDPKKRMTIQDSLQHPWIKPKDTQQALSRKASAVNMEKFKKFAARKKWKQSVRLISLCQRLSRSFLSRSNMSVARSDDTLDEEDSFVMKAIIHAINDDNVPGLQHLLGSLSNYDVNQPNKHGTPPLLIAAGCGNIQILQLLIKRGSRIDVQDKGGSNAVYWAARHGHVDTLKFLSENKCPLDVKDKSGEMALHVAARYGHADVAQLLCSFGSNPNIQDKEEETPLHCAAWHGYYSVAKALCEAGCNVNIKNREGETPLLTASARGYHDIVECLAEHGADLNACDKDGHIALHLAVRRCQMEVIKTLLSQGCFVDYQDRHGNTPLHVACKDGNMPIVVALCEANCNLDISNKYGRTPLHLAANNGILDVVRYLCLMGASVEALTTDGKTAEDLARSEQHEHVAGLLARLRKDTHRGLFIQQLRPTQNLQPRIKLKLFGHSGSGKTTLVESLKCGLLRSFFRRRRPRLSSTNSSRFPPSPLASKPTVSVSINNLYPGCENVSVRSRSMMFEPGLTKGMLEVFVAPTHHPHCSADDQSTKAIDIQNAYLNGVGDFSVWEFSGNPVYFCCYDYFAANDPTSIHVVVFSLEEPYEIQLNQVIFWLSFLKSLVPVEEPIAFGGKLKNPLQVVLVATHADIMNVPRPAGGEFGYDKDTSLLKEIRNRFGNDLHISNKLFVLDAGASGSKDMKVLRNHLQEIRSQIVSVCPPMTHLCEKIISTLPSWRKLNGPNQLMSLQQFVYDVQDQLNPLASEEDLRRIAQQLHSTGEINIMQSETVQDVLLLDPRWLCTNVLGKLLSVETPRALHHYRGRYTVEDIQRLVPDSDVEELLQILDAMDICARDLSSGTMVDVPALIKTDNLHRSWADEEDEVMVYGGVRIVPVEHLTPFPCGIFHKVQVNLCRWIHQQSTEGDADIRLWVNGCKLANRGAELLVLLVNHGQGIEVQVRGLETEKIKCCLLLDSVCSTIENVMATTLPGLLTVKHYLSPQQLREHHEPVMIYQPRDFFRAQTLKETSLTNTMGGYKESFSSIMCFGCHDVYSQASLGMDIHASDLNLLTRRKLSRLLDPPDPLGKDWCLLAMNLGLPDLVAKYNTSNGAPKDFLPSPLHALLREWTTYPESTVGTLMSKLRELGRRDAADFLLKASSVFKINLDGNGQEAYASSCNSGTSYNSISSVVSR

[5] = molecular target: Ribosomal protein S6 kinase beta-1 (Homo sapiens, UniProt P23443); conditions: at 10 µM
Chain of Ribosomal protein S6 kinase beta-1 (P23443 whole entry, looked up): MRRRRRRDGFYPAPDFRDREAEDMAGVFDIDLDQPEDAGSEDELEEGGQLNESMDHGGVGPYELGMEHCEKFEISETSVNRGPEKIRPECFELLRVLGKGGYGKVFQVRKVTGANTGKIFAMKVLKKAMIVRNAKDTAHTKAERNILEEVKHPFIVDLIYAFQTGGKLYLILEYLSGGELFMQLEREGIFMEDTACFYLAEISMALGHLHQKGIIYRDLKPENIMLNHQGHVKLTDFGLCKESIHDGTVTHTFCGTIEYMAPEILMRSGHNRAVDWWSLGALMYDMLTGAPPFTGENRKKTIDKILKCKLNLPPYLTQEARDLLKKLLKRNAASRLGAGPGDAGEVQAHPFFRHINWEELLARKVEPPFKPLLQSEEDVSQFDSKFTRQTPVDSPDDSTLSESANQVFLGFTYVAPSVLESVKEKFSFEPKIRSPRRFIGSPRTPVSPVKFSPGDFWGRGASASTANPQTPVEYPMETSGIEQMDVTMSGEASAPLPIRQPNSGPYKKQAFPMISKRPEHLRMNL

[6] = molecular target: T2, Serine/threonine-protein kinase Nek11 (Homo sapiens) (UniProt Q8NG66); test: Selectivity interaction (KinomeScan (DiscoverX)) EUB0001049a NEK11; conditions: at 1 µM
T2 sequence (whole entry): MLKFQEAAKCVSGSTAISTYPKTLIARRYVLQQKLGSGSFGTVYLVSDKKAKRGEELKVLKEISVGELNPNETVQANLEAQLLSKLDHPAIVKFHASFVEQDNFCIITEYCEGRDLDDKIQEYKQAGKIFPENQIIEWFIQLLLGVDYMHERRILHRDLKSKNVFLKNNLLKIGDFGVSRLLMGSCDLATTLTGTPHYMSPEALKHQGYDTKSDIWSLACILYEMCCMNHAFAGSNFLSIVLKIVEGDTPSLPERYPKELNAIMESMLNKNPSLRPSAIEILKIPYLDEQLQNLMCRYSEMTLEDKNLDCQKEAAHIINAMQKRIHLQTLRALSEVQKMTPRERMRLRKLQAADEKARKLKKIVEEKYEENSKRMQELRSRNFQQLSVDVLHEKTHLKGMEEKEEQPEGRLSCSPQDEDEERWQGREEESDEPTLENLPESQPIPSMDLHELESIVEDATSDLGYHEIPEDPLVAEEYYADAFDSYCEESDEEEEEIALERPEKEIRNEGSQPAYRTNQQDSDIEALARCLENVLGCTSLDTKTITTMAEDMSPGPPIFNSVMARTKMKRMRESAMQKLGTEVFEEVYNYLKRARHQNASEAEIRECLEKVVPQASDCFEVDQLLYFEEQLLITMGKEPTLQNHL

[7] = molecular target: T3, Beta-adrenergic receptor kinase 1 (Homo sapiens) (UniProt P25098); test: Selectivity interaction (SelectScreen profiling (Invitrogen)) EUB0000607a ADRBK1; conditions: at 2 µM
T3 sequence (whole entry): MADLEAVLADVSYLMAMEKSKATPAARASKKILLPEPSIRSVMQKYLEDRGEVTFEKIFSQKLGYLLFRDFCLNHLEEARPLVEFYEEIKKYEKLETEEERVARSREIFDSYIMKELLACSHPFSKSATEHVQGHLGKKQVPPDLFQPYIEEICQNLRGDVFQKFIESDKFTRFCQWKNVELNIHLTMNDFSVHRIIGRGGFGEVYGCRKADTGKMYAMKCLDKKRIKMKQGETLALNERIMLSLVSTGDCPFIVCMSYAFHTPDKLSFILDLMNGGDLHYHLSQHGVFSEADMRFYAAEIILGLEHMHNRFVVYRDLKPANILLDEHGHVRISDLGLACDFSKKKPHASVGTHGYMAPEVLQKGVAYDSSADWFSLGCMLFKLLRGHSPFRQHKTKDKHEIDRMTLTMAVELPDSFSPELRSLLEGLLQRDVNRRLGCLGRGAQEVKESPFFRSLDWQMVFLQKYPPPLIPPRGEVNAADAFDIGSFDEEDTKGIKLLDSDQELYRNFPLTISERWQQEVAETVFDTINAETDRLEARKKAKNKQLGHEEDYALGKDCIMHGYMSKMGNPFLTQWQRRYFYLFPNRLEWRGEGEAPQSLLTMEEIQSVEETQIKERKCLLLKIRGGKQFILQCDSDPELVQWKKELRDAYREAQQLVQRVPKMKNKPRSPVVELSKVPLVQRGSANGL

[8] = molecular target: Tyrosine-protein kinase Fes/Fps (Homo sapiens) (UniProt P07332); test: Selectivity interaction (KinomeScan (DiscoverX)) EUB0000607a FES; conditions: at 10 µM
Chain of Tyrosine-protein kinase Fes/Fps (Homo sapiens) (P07332 whole entry): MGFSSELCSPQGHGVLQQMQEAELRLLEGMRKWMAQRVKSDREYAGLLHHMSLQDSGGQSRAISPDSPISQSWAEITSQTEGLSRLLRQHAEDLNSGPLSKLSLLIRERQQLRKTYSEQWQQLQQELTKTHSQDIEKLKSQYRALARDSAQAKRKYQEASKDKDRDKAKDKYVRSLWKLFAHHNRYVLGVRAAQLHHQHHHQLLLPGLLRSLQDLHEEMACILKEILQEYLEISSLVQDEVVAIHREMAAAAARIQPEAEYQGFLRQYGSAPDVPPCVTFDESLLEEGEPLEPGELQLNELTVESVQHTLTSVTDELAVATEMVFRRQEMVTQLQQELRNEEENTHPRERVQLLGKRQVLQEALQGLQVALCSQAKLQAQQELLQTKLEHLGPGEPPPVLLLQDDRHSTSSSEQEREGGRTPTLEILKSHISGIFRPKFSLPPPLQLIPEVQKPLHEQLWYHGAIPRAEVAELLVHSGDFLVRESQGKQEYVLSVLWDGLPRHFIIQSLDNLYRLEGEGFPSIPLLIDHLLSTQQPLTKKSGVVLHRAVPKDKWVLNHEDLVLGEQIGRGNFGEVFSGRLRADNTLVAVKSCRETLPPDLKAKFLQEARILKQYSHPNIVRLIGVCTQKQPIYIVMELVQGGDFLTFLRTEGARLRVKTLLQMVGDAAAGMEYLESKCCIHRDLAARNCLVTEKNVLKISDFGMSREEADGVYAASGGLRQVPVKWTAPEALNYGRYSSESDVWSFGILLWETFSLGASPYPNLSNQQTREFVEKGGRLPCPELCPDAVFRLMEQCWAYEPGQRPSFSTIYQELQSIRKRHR

[9] = molecular target: Tyrosine-protein kinase Fes/Fps (Homo sapiens) (UniProt P07332); test: Selectivity interaction (KinomeScan (DiscoverX)) EUB0000092b FES; conditions: at 10 µM

Chain of Mitogen-activated protein kinase 8 (P45983 whole entry): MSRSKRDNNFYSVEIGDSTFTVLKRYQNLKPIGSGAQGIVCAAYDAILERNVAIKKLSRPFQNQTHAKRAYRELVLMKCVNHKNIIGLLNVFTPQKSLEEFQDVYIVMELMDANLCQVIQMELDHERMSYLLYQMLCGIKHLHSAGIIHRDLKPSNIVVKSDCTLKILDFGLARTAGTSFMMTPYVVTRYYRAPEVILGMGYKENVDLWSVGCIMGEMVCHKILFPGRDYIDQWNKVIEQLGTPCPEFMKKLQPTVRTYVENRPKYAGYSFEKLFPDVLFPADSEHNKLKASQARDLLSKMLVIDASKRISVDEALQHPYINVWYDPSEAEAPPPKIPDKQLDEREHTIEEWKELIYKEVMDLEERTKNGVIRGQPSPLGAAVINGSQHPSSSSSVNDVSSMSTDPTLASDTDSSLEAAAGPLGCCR

SMILES: CN(C(=O)c1cnn2cccnc12)c1cc2c(cc1N1CCOCC1)C(=O)N(C[C@@H](F)C(C)(C)O)C2
- dTM [1]: -0.6 K

SMILES: Cn1cc(-n2cnc3c(NCc4nc5cc(Cl)c(Cl)cc5[nH]4)nc(N4CCOCC4)nc32)cn1
- % of inhibition [2]: -32.2%

SMILES: O=C(NOC[C@H](O)CO)c1ccc(F)c(F)c1Nc1ccc(I)cc1F
- % of control [3]: 100%
- % of control [4]: 100%

SMILES: Cc1cc([C@@H](C)Nc2ccccc2C(=O)O)c2nc(N3CCOCC3)cc(=O)n2c1 [AZD-6482]
- % of control [5]: 72%

SMILES: COc1cc(Nc2nc(C)cc(-c3cnn4nc(OC)ccc34)n2)cc(C(F)(F)F)c1
- % of control [6]: 99%

SMILES: CNC(=O)Nc1ccc(-c2nc(N3CC4CCC(C3)O4)c3cnn(C4CCC5(CC4)OCCO5)c3n2)cc1
- % of inhibition [7]: -1%
- % of control [8]: 100%

SMILES: CCC(=O)N1CCN(c2ccc(-n3c(=O)ccc4cnc5ccc(-c6cnc7ccccc7c6)cc5c43)cc2C(F)(F)F)CC1
- % of control [9]: 41%

Source: ChEMBL document CHEMBL5465560, “Selectivity Literature for EUbOPEN Chemogenomic Library” (2024)
